# Experimental data taken from the Kinase Knowledgebase extract (Sharma et al. 2016).
# Molecular target: MAPK14 (human) (UniProt Q16539)
# Assay: Inhibition of MAPK14 Kinase Activity
# Sequence of MAPK14 (human) (Q16539 whole entry, looked up): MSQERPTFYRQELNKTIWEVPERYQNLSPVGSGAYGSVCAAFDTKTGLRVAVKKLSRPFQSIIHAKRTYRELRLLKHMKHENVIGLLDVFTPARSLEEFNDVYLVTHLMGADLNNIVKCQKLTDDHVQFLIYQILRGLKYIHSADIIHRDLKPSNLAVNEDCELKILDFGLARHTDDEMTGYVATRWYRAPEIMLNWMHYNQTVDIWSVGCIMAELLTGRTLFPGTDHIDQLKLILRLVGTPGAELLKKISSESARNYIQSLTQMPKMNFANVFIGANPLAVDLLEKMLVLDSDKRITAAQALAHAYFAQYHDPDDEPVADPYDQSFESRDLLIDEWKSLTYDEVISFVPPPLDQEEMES
row,SMILES,IC50 [µM]
1,Cc1cccc(C)c1-n1c(=O)[nH]c2c(-c3ccccc3Cl)ncnc21,7.8
2,O=c1[nH]c2c(-c3ccccc3)ncnc2n1-c1c(F)cccc1F,17.5
3,O=c1[nH]c2c(-c3ccccc3Cl)ncnc2n1-c1ccc(F)cc1F,2.7
4,Cc1ccccc1-c1ncnc2c1[nH]c(=O)n2-c1c(C)cccc1C,18.1
5,Cc1ccccc1-c1ncnc2c1[nH]c(=S)n2-c1c(C)cccc1C,100
6,Cc1ccccc1-c1ncnc2c1[nH]c(=O)n2-c1c(F)cccc1F,0.5

# The next lines start with the values.
row,IC50 [µM],SMILES
1,0.9,O=c1[nH]c2c(-c3ccccc3Cl)ncnc2n1-c1c(F)cccc1F
2,7.8,O=c1[nH]c2c(-c3ccccc3F)ncnc2n1-c1c(F)cccc1F
3,1.6,Cc1ccccc1-c1ncnc2c1[nH]c(=O)n2-c1ccc(F)cc1F
4,5.2,COc1ccc(-n2c(=O)[nH]c3c(-c4ccccc4C)ncnc32)c(OC)c1
